Laboratory results from publication PMC12381781, “Structural and functional insights into the selective inhibition of mutant tau aggregation by purpurin and oleocanthal in frontotemporal dementia” (Protein Science : A Publication of the Protein Society, 2025).

System: SY5Y-TauP301L-EGFP cells
Test: SH-SY5Y seeding assay, Triton X-100 fractionation and western blot
Format: cell-based
Description: SH‐SY5Y cells were transfected with the AAVS1 CAG rtTA3 TauP301L 2N4R‐EGFP plasmid using ScreenFect‐A‐plus Transfection Reagent (ScreenFect GmbH). AAVS1 CAG rtTA3 TauP301L 2N4R‐EGFP was a gift from Gerold Schmitt‐Ulms (Addgene plasmid #132393; http://n2t.net/addgene:132393; RRID: Addgene_132393). Stable cell lines expressing TauP301L 2N4R‐EGFP were generated via puromycin selection and are referred to as SY5Y‐TauP301L‐EGFP cells. Stable expression of the inducible TauP301L‐EGFP construct was confirmed by fluorescence microscopy and Western blot after doxycycline induction.
SH‐SY5Y and SY5Y‐TauP301L‐EGFP cells were plated at 250,000 cells per well on Geltrex™‐coated culture plates (Gibco, # A1413201) and maintained in complete DMEM. After 24 h, the medium was replaced with CTS™ Neurobasal™ A Medium (Gibco, # A1371201) supplemented with 1× B‐27™ Supplement (ThermoFisher Scientific, #17504044), […] L‐glutamine, and 1% Penicillin–Streptomycin (complete neurobasal medium). Cells were differentiated by treatment with 10 μM all‐trans‐retinoic acid (RA; Sigma‐Aldrich, # R2625) for 72 h. The differentiation was continued in complete neurobasal media supplemented with 10 μM RA and 50 ng/mL recombinant human brain‐derived neurotrophic factor (BDNF) (R&D Systems, #248‐BDB‐250) for another 72 h.
Differentiated SY5Y‐TauP301L‐EGFP cells were pre‐treated with 0.5 μg/mL doxycycline (Sigma‐Aldrich, # D3447) for 24 h to induce the expression of TauP301L‐EGFP. Doxycycline was maintained in the cell culture media throughout the seeding assay. Cells were transduced with tau aggregation reaction products, standardized to 100 nM tau peptide. Transduction mixtures were prepared by combining the tau aggregation reaction products with TurboFect™ Transfection Reagent (Thermo Fisher Scientific Inc.) in Opti‐MEM™. The mixture was briefly vortexed and incubated at room temperature for 15 min before adding to cells. After 72 h, cells were processed for Triton X‐100 fractionation and western blot analysis, as described below.
Triton X‐100 soluble and insoluble fractions were prepared as described previously with minor modifications (Annadurai, Malina, Malohlava, et al., [2022]). SY5Y‐TauP301L‐EGFP cells were harvested in 1× Tris‐buffered saline (TBS) containing 0.05% Triton X‐100, supplemented with protease and phosphatase inhibitors (Roche, #04693116001 and #04906837001). After centrifugation at 1000 × g for 10 min at 4°C, the supernatant was ultracentrifuged at 24,400 × g for 1 h at 4°C to separate Triton X‐100 soluble and insoluble fractions. The insoluble fraction was resuspended in radioimmunoprecipitation assay (RIPA) buffer (Thermo Fisher Scientific, #89901) with protease and phosphatase inhibitors for further analysis.
Equal volumes of soluble and insoluble fractions were resolved by SDS‐PAGE and transferred onto nitrocellulose membranes using the Trans‐Blot Turbo Transfer System (Bio‐Rad). […]
Densitometric analysis of insoluble tau bands was performed by first normalizing total tau signal intensities to GAPDH levels measured in the corresponding soluble fractions. […]

[1] = cells transduced with P301L peptide aggregation products formed with compound vs without, 72 h

C/C=C(/C=O)[C@@H](CC=O)CC(=O)OCCc1ccc(O)cc1 [OLC, oleocanthal]
pSer262, T22, or total tau levels, soluble fractions (P301L peptide aggregation products, across treatments): no significant differences
T22 or pSer262 tau, soluble and insoluble fractions (WT peptide aggregation products formed with compound vs control): no substantial differences
oligomeric tau T22 level, insoluble fraction [1]: significantly reduced
pSer262 tau level, insoluble fraction [1]: significantly reduced
total tau level, insoluble fraction [1]: significantly reduced
